Measured values published in ChEMBL document CHEMBL1201862, “PubChem BioAssay data set” (2004).
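Five concentrations, 48 hours, 96-well plates. GI50 is the concentration that inhibits growth by half.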 Calls of active or inactive are those of the source. No stated cut-off is given here; in the data, active = GI50 up to about 1.1 µM and inactive = higher.

Legend:
Experiment in all cases: inhibition of tumour cell growth, NCI panel, 48 h
[1] = test system: SK-MEL-28
[2] = test system: UO-31
[3] = test system: COLO 205
[4] = test system: HL-60
[5] = test system: HCC 2998
[6] = test system: Hs-578T
[7] = test system: SNB-75
[8] = test system: OVCAR-5
[9] = test system: U-251
[10] = test system: TK-10
[11] = test system: SW-620
[12] = test system: HOP-62
[13] = test system: SR
[14] = test system: ACHN
[15] = test system: SF-295
[16] = test system: SF-539
[17] = test system: OVCAR-3
[18] = test system: M14
[19] = test system: UACC-62
[20] = test system: SNB-19

| SMILES | GI50 [1] | GI50 [2] | GI50 [3] | GI50 [4] | GI50 [5] | GI50 [6] | GI50 [7] | GI50 [8] | GI50 [9] | GI50 [10] | GI50 [11] | GI50 [12] | GI50 [13] | GI50 [14] | GI50 [15] | GI50 [16] | GI50 [17] | GI50 [18] | GI50 [19] | GI50 [20] |
| --- | --- | --- | --- | --- | --- | --- | --- | --- | --- | --- | --- | --- | --- | --- | --- | --- | --- | --- | --- | --- |
| CS(=O)(=O)N1CC(CI)c2ccc(O)cc21 (stereo unspecified) | 3.23 µM (inactive) | 3.35 µM (inactive) | 2.88 µM (inactive) | 1.79 µM (inactive) | 2.08 µM (inactive) | 3.41 µM (inactive) | 1.79 µM (inactive) | 2.29 µM (inactive) | 2.49 µM (inactive) | 2.28 µM (inactive) | 2.18 µM (inactive) | 3.02 µM (inactive) | 1.4 µM (inactive) | 2.67 µM (inactive) | 3.51 µM (inactive) | 2.99 µM (inactive) | 2.89 µM (inactive) |  |  |  |
| CCOC(=O)c1nc2cc(C(F)(F)F)ccc2nc1Nc1ccc(C(=O)OC)s1 | 45 µM (inactive) | 33.3 µM (inactive) | 20.7 µM (inactive) | 38 µM (inactive) | 36.1 µM (inactive) | 29.8 µM (inactive) | 56.1 µM (inactive) | > 100 µM (inactive) | 29.6 µM (inactive) | 42.8 µM (inactive) | 49.1 µM (inactive) | 33.6 µM (inactive) | 15.5 µM (inactive) | 37.8 µM (inactive) | 43 µM (inactive) |  | 19.3 µM (inactive) | 37.6 µM (inactive) | 23.2 µM (inactive) | 33.1 µM (inactive) |
| O=C1C(O)=C(CC=C(Cl)Cl)C(=O)c2ccccc21 | 23.4 µM (inactive) | 20.7 µM (inactive) | 19.5 µM (inactive) | 2.07 µM (inactive) | 28 µM (inactive) | 42.4 µM (inactive) | 50.6 µM (inactive) | 47.5 µM (inactive) | 2.62 µM (inactive) | 38.9 µM (inactive) | 8.93 µM (inactive) | 12.4 µM (inactive) | 1.08 µM (active) | 12.3 µM (inactive) |  | 10 µM (inactive) | 13.5 µM (inactive) | 12.6 µM (inactive) | 4.91 µM (inactive) | 11 µM (inactive) |
| N#Cc1ccc(-c2nc3cc(Cl)ccc3[nH]2)cc1 |  | 27.6 µM (inactive) | 74.8 µM (inactive) | 13 µM (inactive) | 38.1 µM (inactive) | > 100 µM (inactive) | > 100 µM (inactive) |  | 61.9 µM (inactive) |  | > 100 µM (inactive) | > 100 µM (inactive) | 80 µM (inactive) |  | 44.6 µM (inactive) | > 100 µM (inactive) | 54.7 µM (inactive) | 79.1 µM (inactive) |  | > 100 µM (inactive) |
| CCOC(=O)c1c(N)sc2c1C(C(=O)OCC)CCCC2 (stereo unspecified) | > 100 µM (inactive) | 37.6 µM (inactive) | 85.7 µM (inactive) | 26.2 µM (inactive) | 76.9 µM (inactive) | 43.9 µM (inactive) | > 100 µM (inactive) | > 100 µM (inactive) | 66.5 µM (inactive) | > 100 µM (inactive) | > 100 µM (inactive) | > 100 µM (inactive) | 34.6 µM (inactive) | 83.6 µM (inactive) |  |  |  | > 100 µM (inactive) | 78.3 µM (inactive) | 71.6 µM (inactive) |
| CCCCc1ccc(Nc2nc3c(ncn3C3CC(O)C(CN=[N+]=[N-])O3)c(=O)[nH]2)cc1 (stereo unspecified) | > 100 µM (inactive) | > 100 µM (inactive) | > 100 µM (inactive) | > 100 µM (inactive) | > 100 µM (inactive) | > 100 µM (inactive) | > 100 µM (inactive) | > 100 µM (inactive) | > 100 µM (inactive) |  | > 100 µM (inactive) | > 100 µM (inactive) | > 100 µM (inactive) | > 100 µM (inactive) | > 100 µM (inactive) |  | > 100 µM (inactive) | > 100 µM (inactive) | > 100 µM (inactive) | > 100 µM (inactive) |
| CCOC(=O)c1ccc(Nc2nc3cc(C(F)(F)F)ccc3nc2-c2ccccc2)cc1 | > 100 µM (inactive) | > 100 µM (inactive) | 42.7 µM (inactive) | 50.2 µM (inactive) | 22.8 µM (inactive) | 36.1 µM (inactive) | 13.5 µM (inactive) | 30.1 µM (inactive) | 21.9 µM (inactive) | > 10 µM (inactive) | 63.2 µM (inactive) | 20.9 µM (inactive) | > 100 µM (inactive) | 17.7 µM (inactive) | 26.7 µM (inactive) | 65.5 µM (inactive) | 53.6 µM (inactive) |  | 11.1 µM (inactive) | 29.2 µM (inactive) |
| C#CC(O)/C=C/C(O)CCCC(O)CC#CC(O)C#CCCCCC(O)/C=C/CCCCCC(=O)CCCCCCCCCCCCCC(O)C(O)C#CC(=O)O (stereo unspecified) | > 25 µM (inactive) | 11.5 µM (inactive) | > 25 µM (inactive) | > 25 µM (inactive) | > 25 µM (inactive) | > 25 µM (inactive) | > 25 µM (inactive) | > 25 µM (inactive) | > 25 µM (inactive) | > 25 µM (inactive) |  | > 25 µM (inactive) | 7.13 µM (inactive) | > 25 µM (inactive) | > 25 µM (inactive) |  |  | > 25 µM (inactive) | > 25 µM (inactive) | > 25 µM (inactive) |
| O=S(=O)(/N=C(\NO)Nc1ccc(Cl)cc1)C1CC=C(c2ccon2)S1 (stereo unspecified) | 23.5 µM (inactive) | 9.55 µM (inactive) | 15.7 µM (inactive) | 1.18 µM (inactive) | 15.3 µM (inactive) | 14.7 µM (inactive) |  | > 66.2 µM (inactive) | 15.8 µM (inactive) | 14.4 µM (inactive) | 5.78 µM (inactive) | 40.5 µM (inactive) | 2.3 µM (inactive) | 13 µM (inactive) | 40.7 µM (inactive) | 1.2 µM (inactive) | 22.5 µM (inactive) | 29 µM (inactive) | 24.5 µM (inactive) | 30.1 µM (inactive) |
| CCC(CON(C)c1ccccc1)(SC)SC | > 100 µM (inactive) | 95.1 µM (inactive) | > 100 µM (inactive) | 99.1 µM (inactive) | > 100 µM (inactive) | 80.2 µM (inactive) | > 100 µM (inactive) | > 100 µM (inactive) | > 100 µM (inactive) | > 100 µM (inactive) | > 100 µM (inactive) | > 100 µM (inactive) | > 100 µM (inactive) | > 100 µM (inactive) | > 100 µM (inactive) | > 100 µM (inactive) |  | > 100 µM (inactive) | > 100 µM (inactive) | > 100 µM (inactive) |
| CC1(C)CC(=O)c2c(nc(SSc3nc4c(c(-c5ccc(Br)cc5)c3C#N)C(=O)CC(C)(C)C4)c(C#N)c2-c2ccc(Br)cc2)C1 | > 10 µM (inactive) | > 10 µM (inactive) | > 10 µM (inactive) | > 10 µM (inactive) | > 10 µM (inactive) | > 10 µM (inactive) | > 10 µM (inactive) | > 10 µM (inactive) | > 10 µM (inactive) | > 10 µM (inactive) | > 10 µM (inactive) | > 10 µM (inactive) | > 10 µM (inactive) | > 10 µM (inactive) | > 10 µM (inactive) | > 10 µM (inactive) | > 10 µM (inactive) | > 10 µM (inactive) |  | > 10 µM (inactive) |
| CC(=O)Nc1ccc2nc(-c3cccc(Cl)c3)cc(O)c2c1 | 39.3 µM (inactive) |  | 2.99 µM (inactive) | 8.34 µM (inactive) | 8.38 µM (inactive) | 2.59 µM (inactive) | 4.4 µM (inactive) | 68.4 µM (inactive) | 3.65 µM (inactive) | > 100 µM (inactive) | 4.41 µM (inactive) | 65 µM (inactive) | 5.37 µM (inactive) | 64.6 µM (inactive) |  | 4.71 µM (inactive) |  | 11.1 µM (inactive) | 2.42 µM (inactive) | 7.62 µM (inactive) |
| Cc1cc(C)nc(NS(=O)(=O)c2ccc(Nc3c4ccccc4nc4c(C(=O)NCCCN(CCO)CCO)cccc34)cc2)n1 | 14.2 µM (inactive) | 42 µM (inactive) | 14 µM (inactive) | 11.5 µM (inactive) | 16.7 µM (inactive) | 6.67 µM (inactive) | 3.35 µM (inactive) | 26.4 µM (inactive) | 13.9 µM (inactive) | > 100 µM (inactive) | 8.36 µM (inactive) | 17.1 µM (inactive) | 9.75 µM (inactive) | 22.9 µM (inactive) | 27.4 µM (inactive) |  | 30.1 µM (inactive) | 31.8 µM (inactive) | 14 µM (inactive) | 9.29 µM (inactive) |
| ClC(Cl)(Cl)C1CCOC1n1nc2ccccc2n1 (stereo unspecified) |  |  | > 100 µM (inactive) | 49.9 µM (inactive) | > 100 µM (inactive) | > 100 µM (inactive) | 28.2 µM (inactive) | > 100 µM (inactive) | > 100 µM (inactive) | > 100 µM (inactive) |  | > 100 µM (inactive) | > 100 µM (inactive) |  | > 100 µM (inactive) | > 100 µM (inactive) | > 100 µM (inactive) | > 100 µM (inactive) | > 100 µM (inactive) |  |
| Cc1ccc(Nc2nnc3n2S(=O)(=O)c2cc(C)c(Cl)cc2S3)cc1 | 19.6 µM (inactive) | 17.3 µM (inactive) |  | 3.48 µM (inactive) | 18.2 µM (inactive) | 2.89 µM (inactive) | 6.93 µM (inactive) | 14.1 µM (inactive) | 4.66 µM (inactive) | 35.2 µM (inactive) | 14.5 µM (inactive) | 6.35 µM (inactive) | 2.4 µM (inactive) | 27.9 µM (inactive) | 3.22 µM (inactive) | 3.77 µM (inactive) | 2 µM (inactive) | 7.14 µM (inactive) |  |  |
